This is an account of results in ChEMBL document CHEMBL1159040, “Synthesis and evaluation of phenylequine for antimalarial activity in vitro and in vivo” (Bioorg Med Chem Lett, 2010).

What is called IC50 is the concentration that gives 50% inhibition. Higher therefore signals weaker potency in that assay. The inhibition in vivo is the percentage by which the read-out fell short of the control.

The subject of data set [1] is Plasmodium falciparum. Put plainly: Antiplasmodial activity against chloroquine-sensitive Plasmodium falciparum D10 infected in human O+ RBC by parasite LDH assay. It counts as functional, organism-based.
The subject of data set [2] is Plasmodium falciparum. Put plainly: Antiplasmodial activity against chloroquine-resistant Plasmodium falciparum K1 infected in human O+ erythrocytes by parasite LDH assay. Format: functional, organism-based.
Data set [3] deals with KB. Put plainly: Cytotoxicity against human KB cells. Format: cell-based.
The test system of data set [4] is Plasmodium yoelii. Put plainly: Antiplasmodial activity in chloroquine-nonsensitive Plasmodium yoelii infected BALB/c mice (Mus musculus) assessed as inhibition of parasitaemia at 3 mg/kg, intraperitoneally daily once for 4 days. It counts as functional. To be noted: route intraperitoneal.
In data set [5] the test system is Plasmodium yoelii. The data set can be described thus: Antiplasmodial activity in chloroquine-nonsensitive Plasmodium yoelii infected BALB/c mice (Mus musculus) assessed as inhibition of parasitaemia at 10 mg/kg, intraperitoneally daily once for 4 days. Format: functional. To be noted: ip, 96 h, route intraperitoneal.
For data set [6], the system named is Plasmodium berghei. Put plainly: Antiplasmodial activity in chloroquine-sensitive Plasmodium berghei ANKA infected BALB/c mice (Mus musculus) assessed as inhibition of parasitemia at 10 mg/kg, intraperitoneally daily once for 4 days. It counts as functional. To be noted: ip, 96 h, route intraperitoneal.
Data set [7] relates to Plasmodium yoelii. Put plainly: Antiplasmodial activity in chloroquine-nonsensitive Plasmodium yoelii infected BALB/c mice (Mus musculus) assessed as inhibition of parasitaemia at 1 mg/kg, intraperitoneally daily once for 4 days. It counts as functional. The note with it: ip, 96 h, route intraperitoneal.
Data set [8] deals with Plasmodium berghei. Put plainly: Antiplasmodial activity in chloroquine-sensitive Plasmodium berghei ANKA infected BALB/c mice (Mus musculus) assessed as mean parasitemia at 10 mg/kg, intraperitoneally daily once for 4 days. Format: functional. To be noted: route intraperitoneal.
Data set [9] has as its system Plasmodium yoelii. Put plainly: Antiplasmodial activity in chloroquine-nonsensitive Plasmodium yoelii infected BALB/c mice (Mus musculus) assessed as inhibition of parasitaemia at 30 mg/kg, intraperitoneally daily once for 4 days. Format: functional. To be noted: route intraperitoneal.
In data set [10] the test system is Plasmodium berghei. The data set can be described thus: Antiplasmodial activity in chloroquine-sensitive Plasmodium berghei ANKA infected BALB/c mice (Mus musculus) assessed as inhibition of parasitemia at 30 mg/kg, intraperitoneally daily once for 4 days. It counts as functional. To be noted: route intraperitoneal.
Data set [11] concerns Plasmodium berghei. The data set can be described thus: Antiplasmodial activity in chloroquine-sensitive Plasmodium berghei ANKA infected BALB/c mice (Mus musculus) assessed as mean parasitemia at 30 mg/kg, intraperitoneally daily once for 4 days. Format: functional. The note with it: route intraperitoneal.

As to `CN(C)Cc1ccccc1CNc1ccnc2ccccc12`, the IC50 in data set [1] was determined as 106 nM; in [2], 70.3 nM. For the same molecule, the Activity in data set [3] was 8.5 µM.
With `CN(C)Cc1ccccc1CNCCNc1ccnc2cc(Cl)ccc12`, the IC50 in data set [1] was determined as 19.5 nM; in [2], 9.8 nM. The same molecule returned an Activity in data set [3] of 14 µM.
Turning to `CCN(CC)CCCC(C)Nc1ccnc2cc(Cl)ccc12.O=P(O)(O)O.O=P(O)(O)O` (stereo not drawn) [CHLOROQUINE PHOSPHATE], in [4] (Plasmodium yoelii, ip, 96 h), the inhibition in vivo at 3 mg/kg amounted to 32.7%. The inhibition in vivo at 10 mg/kg worked out at 98.1% in data set [5] and 100% in data set [6]. Also, in [7], the inhibition in vivo at 1 mg/kg amounted to 32.7%. The Activity in [8] is 0%.
As for `CN(C)Cc1ccccc1CNc1ccnc2cc(Cl)ccc12.O=C(O)CC(O)(CC(=O)O)C(=O)O` [PHENYLEQUINE DICITRATE], the “inhibition (INH)” value came out at 8.9% in [4] and 99.6% in [9].
Take `CN(C)Cc1ccccc1CNc1ccnc2cc(Cl)ccc12.Cl.Cl` [PHENYLEQUINE DIHYDROCHLORIDE]: the “inhibition (INH)” value in data set [4] worked out at 94.5%. The inhibition in vivo at 10 mg/kg in [5] was 99.7%. Moreover, the inhibition in vivo at 30 mg/kg stood at 99.5% in [9] (Plasmodium yoelii, ip, 96 h) and 100% in [10] (Plasmodium berghei, ANKA, ip, 96 h). For the same molecule, the Activity in [11] is on record as 0%.
For `CN(C)Cc1ccccc1CNc1ccnc2cc(Cl)ccc12` [PHENYLEQUINE], the “inhibition (INH)” value in [10] is recorded as 100%. For the same molecule, the figures for the IC50 in data set [1] and in [2] were 13.2 nM and 6.9 nM, respectively. Further, the results for the Activity in data set [11] and in [3] were 0% and 70 µM, respectively.
